Experimental data from the supplement of paper PMC10307832.

Key:
Assay in all cases: relative viability (nuclei count vs DMSO), 5 days (fraction); higher = more cells survive
[1] = compound: C1=CC2=NC=CN=C2C=C1/C=C/3\C(=O)NC(=O)S3 + CS(=O)(=O)N1CCN(Cc2cc3nc(-c4cccc5[nH]ncc45)nc(N4CCOCC4)c3s2)CC1 [Pictilisib] (partner 1 µM)
Procedure, shortened: (§1)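 Relative viability divides the nuclei count in treated wells by that in vehicle wells. Lung cancer cell lines were seeded in 1536-well plates, dosed by pin tool the next day, and fixed and stained after 5 days in one step with final 0.05% Triton X-100, 1% formaldehyde and 1 ug/ml Hoechst. Dosing was a single drug or a fixed anchor-drug dose plus five library-drug doses (not always all listed) in √10 steps, and values are medians of duplicate plates imaged at 4×.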

BGJ398 + Phenformin = compound: CCN1CCN(c2ccc(Nc3cc(N(C)C(=O)Nc4c(Cl)c(OC)cc(OC)c4Cl)ncn3)cc2)CC1 [BGJ398] + N=C(N)NC(=N)NCCc1ccccc1 [Phenformin] (partner 250 µM)
Procedure, shortened: as §1

[2] = compound: C1=CC2=NC=CN=C2C=C1/C=C/3\C(=O)NC(=O)S3 + NC(=O)Nc1cc(-c2cccc(F)c2)sc1C(=O)N[C@H]1CCCNC1 [AZD7762] (partner 0.2 µM)
Procedure, shortened: as §1

[3] = compound: C1=CC2=NC=CN=C2C=C1/C=C/3\C(=O)NC(=O)S3 + CC(=O)Nc1cccc(-n2c(=O)n(C3CC3)c(=O)c3c(Nc4ccc(I)cc4F)n(C)c(=O)c(C)c32)c1 [Trametinib] (partner 0.02 µM)
Procedure, shortened: as §1

Row | Cell Line | relative viability ([1]; first compound 0.02 µM) | relative viability ([1]; first compound 0.06325 µM) | relative viability ([1]; first compound 0.2 µM) | relative viability ([1]; first compound 0.6325 µM) | relative viability ([1]; first compound 2 µM) | relative viability (BGJ398 + Phenformin; first compound 0.01 µM) | relative viability (BGJ398 + Phenformin; first compound 0.03162 µM) | relative viability (BGJ398 + Phenformin; first compound 0.1 µM) | relative viability (BGJ398 + Phenformin; first compound 0.3162 µM) | relative viability (BGJ398 + Phenformin; first compound 1 µM) | relative viability ([2]; first compound 0.02 µM) | relative viability ([2]; first compound 0.06325 µM) | relative viability ([2]; first compound 0.2 µM) | relative viability ([2]; first compound 0.6325 µM) | relative viability ([2]; first compound 2 µM) | relative viability ([3]; first compound 0.02 µM) | relative viability ([3]; first compound 0.06325 µM) | relative viability ([3]; first compound 0.2 µM) | relative viability ([3]; first compound 0.6325 µM) | relative viability ([3]; first compound 2 µM)
1 | NCI-H3122 | 0.697 | 0.487 | 0.578 | 0.547 | 0.364 | 0.353 | 0.387 | 0.373 | 0.339 | 0.347 | 0.989 | 1 | 0.984 | 0.991 | 0.913 | 0.246 | 0.261 | 0.237 | 0.191 | 0.235
2 | NCI-H2087 | 0.77 | 1.11 | 0.913 | 0.798 | 0.995 | 0.44 | 0.438 | 0.507 | 0.386 | 0.494 | 1.14 | 1.36 | 1.21 | 1.21 | 1.26 | 0.178 | 0.188 | 0.17 | 0.179 | 0.233
3 | LC-2-ad | 0.465 | 0.533 | 0.478 | 0.411 | 0.335 | 0.58 | 0.604 | 0.655 | 0.573 | 0.503 | 0.768 | 0.817 | 0.848 | 0.798 | 0.619 | 0.884 | 0.991 | 0.931 | 0.972 | 0.83
4 | NCI-H1915 | 0.956 | 1.15 | 1.12 | 0.774 | 0.97 | 0.374 | 0.367 | 0.365 | 0.354 | 0.367 | 0.704 | 0.712 | 0.705 | 0.703 | 0.713 | 0.289 | 0.305 | 0.323 | 0.301 | 0.291
5 | NCI-H1793 | 0.344 | 0.395 | 0.328 | 0.294 | 0.263 | 0.361 | 0.351 | 0.387 | 0.334 | 0.293 | 0.573 | 0.271 | 0.612 | 0.309 | 0.347 | 0.411 | 0.334 | 0.434 | 0.421 | 0.529
6 | RERF-LC-KJ | 0.502 | 0.457 | 0.492 | 0.518 | 0.482 | 0.449 | 0.422 | 0.416 | 0.432 | 0.493 | 0.707 | 0.894 | 0.962 | 0.943 | 0.624 | 0.815 | 0.878 | 0.88 | 0.738 | 0.62
7 | LXF-289 | 0.723 | 0.843 | 0.801 | 0.771 | 0.635 | 0.536 | 0.509 | 0.542 | 0.473 | 0.502 | 1.06 | 0.975 | 1.1 | 0.986 | 1.18 | 0.671 | 0.655 | 0.649 | 0.662 | 0.688
8 | PC-14 | 0.636 | 0.75 | 0.735 | 0.652 | 0.531 | 0.586 |  | 0.642 |  | 0.369 | 0.421 | 0.272 | 0.423 | 0.322 | 0.299 | 0.702 | 1.16 | 0.835 | 0.738 | 0.938
